# pIC50: −log10 of the molar value.
# System: 362531-283-R-J2-PDC complex spheroid viability
# Assay: Anticancer human tumor 362531-283-R-J2-PDC patient-derived colon adenocarcinoma cell line growth inhibition [RAS]
# Settings: for pIC50: curve of first compound; for viability, T/C: stronger effect = lower value
# Method in brief: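 Tumour cells grown as complex spheroids with HUVEC endothelial cells and mesenchymal stem cells, treated with RAS pathway inhibitor combinations. Each agent spans half-log steps from near clinical Cmax, or 10 microM where Cmax is unknown.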
# 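Note: spheroids exposed to the agents for 7 days before readout.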
# 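Throughout, for viability, T/C: luminescence viability as percent of DMSO vehicle control wells.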
smiles,measurement,setting,value
O=C(c1ccc(F)c(F)c1Nc1ccc(I)cc1F)N1CC(O)([C@@H]2CCCCN2)C1 + C#Cc1c(F)ccc2cc(O)cc(-c3ncc4c(N5CC6CCC(C5)N6)nc(OCC56CCCN5CC(F)C6)nc4c3F)c12,pIC50,second compound 0.0316 µM,6.38
same,pIC50,second compound 0.1 µM,6.46
same,pIC50,second compound 0.316 µM,6.46
same,pIC50,second compound 1 µM,6.74
same,pIC50,second compound 3.16 µM,7.43
same,pIC50,second compound 10 µM,> 8.50
same,"viability, T/C","second compound 0.0316 µM, first compound 0.00316 µM",97.9%
same,"viability, T/C","second compound 0.0316 µM, first compound 0.01 µM",101%
same,"viability, T/C","second compound 0.0316 µM, first compound 0.0316 µM",101%
same,"viability, T/C","second compound 0.0316 µM, first compound 0.1 µM",88.1%
same,"viability, T/C","second compound 0.0316 µM, first compound 0.316 µM",62.9%
same,"viability, T/C","second compound 0.0316 µM, first compound 1 µM",8.48%
same,"viability, T/C","second compound 0.1 µM, first compound 0.00316 µM",97.6%
same,"viability, T/C","second compound 0.1 µM, first compound 0.01 µM",98.4%
same,"viability, T/C","second compound 0.1 µM, first compound 0.0316 µM",95.5%
same,"viability, T/C","second compound 0.1 µM, first compound 0.1 µM",72.1%
same,"viability, T/C","second compound 0.1 µM, first compound 0.316 µM",57.6%
same,"viability, T/C","second compound 0.1 µM, first compound 1 µM",4.9%
same,"viability, T/C","second compound 0.316 µM, first compound 0.00316 µM",90.1%
same,"viability, T/C","second compound 0.316 µM, first compound 0.01 µM",88.1%
same,"viability, T/C","second compound 0.316 µM, first compound 0.0316 µM",78.1%
same,"viability, T/C","second compound 0.316 µM, first compound 0.1 µM",66.3%
same,"viability, T/C","second compound 0.316 µM, first compound 0.316 µM",61.3%
same,"viability, T/C","second compound 0.316 µM, first compound 1 µM",3.76%
same,"viability, T/C","second compound 1 µM, first compound 0.00316 µM",82.6%
same,"viability, T/C","second compound 1 µM, first compound 0.01 µM",78.6%
same,"viability, T/C","second compound 1 µM, first compound 0.0316 µM",78.2%
same,"viability, T/C","second compound 1 µM, first compound 0.1 µM",79.1%
same,"viability, T/C","second compound 1 µM, first compound 0.316 µM",22.9%
same,"viability, T/C","second compound 1 µM, first compound 1 µM",3.27%
same,"viability, T/C","second compound 3.16 µM, first compound 0.00316 µM",65.4%
same,"viability, T/C","second compound 3.16 µM, first compound 0.01 µM",60.5%
same,"viability, T/C","second compound 3.16 µM, first compound 0.0316 µM",56.5%
same,"viability, T/C","second compound 3.16 µM, first compound 0.1 µM",10.6%
same,"viability, T/C","second compound 3.16 µM, first compound 0.316 µM",9.05%
same,"viability, T/C","second compound 3.16 µM, first compound 1 µM",1.7%
same,"viability, T/C","second compound 10 µM, first compound 0.00316 µM",28%
same,"viability, T/C","second compound 10 µM, first compound 0.01 µM",31.1%
same,"viability, T/C","second compound 10 µM, first compound 0.0316 µM",13.9%
same,"viability, T/C","second compound 10 µM, first compound 0.1 µM",9.85%
same,"viability, T/C","second compound 10 µM, first compound 0.316 µM",6.01%
same,"viability, T/C","second compound 10 µM, first compound 1 µM",1.71%
CCc1c2c(nc3ccc(O)cc13)-c1cc3c(c(=O)n1C2)COC(=O)[C@]3(O)CC + CCn1c(-c2cc(N3CCN(C)CC3)cnc2C(C)OC)c2c3cc(ccc31)-c1csc(n1)CC(NC(=O)C1CC1C)C(=O)N1CCCC(N1)C(=O)OCC(C)(C)C2,pIC50,second compound 0.000949 µM,7.38
same,pIC50,second compound 0.003 µM,7.42
same,pIC50,second compound 0.00949 µM,7.38
same,pIC50,second compound 0.03 µM,7.45
same,pIC50,second compound 0.0949 µM,7.84
same,pIC50,second compound 0.3 µM,> 9.02
same,"viability, T/C","second compound 0.000949 µM, first compound 0.000949 µM",94.3%
same,"viability, T/C","second compound 0.000949 µM, first compound 0.003 µM",90.9%
same,"viability, T/C","second compound 0.000949 µM, first compound 0.00949 µM",80.9%
same,"viability, T/C","second compound 0.000949 µM, first compound 0.03 µM",61.4%
same,"viability, T/C","second compound 0.000949 µM, first compound 0.0949 µM",26.2%
same,"viability, T/C","second compound 0.000949 µM, first compound 0.3 µM",16.4%
same,"viability, T/C","second compound 0.003 µM, first compound 0.000949 µM",97.5%
same,"viability, T/C","second compound 0.003 µM, first compound 0.003 µM",99.7%
same,"viability, T/C","second compound 0.003 µM, first compound 0.00949 µM",75.1%
same,"viability, T/C","second compound 0.003 µM, first compound 0.03 µM",61.8%
same,"viability, T/C","second compound 0.003 µM, first compound 0.0949 µM",23.4%
same,"viability, T/C","second compound 0.003 µM, first compound 0.3 µM",19.2%
same,"viability, T/C","second compound 0.00949 µM, first compound 0.000949 µM",101%
same,"viability, T/C","second compound 0.00949 µM, first compound 0.003 µM",97.1%
same,"viability, T/C","second compound 0.00949 µM, first compound 0.00949 µM",74.4%
same,"viability, T/C","second compound 0.00949 µM, first compound 0.03 µM",63.6%
same,"viability, T/C","second compound 0.00949 µM, first compound 0.0949 µM",26.9%
same,"viability, T/C","second compound 0.00949 µM, first compound 0.3 µM",12.6%
same,"viability, T/C","second compound 0.03 µM, first compound 0.000949 µM",94.3%
same,"viability, T/C","second compound 0.03 µM, first compound 0.003 µM",89.1%
same,"viability, T/C","second compound 0.03 µM, first compound 0.00949 µM",69.4%
same,"viability, T/C","second compound 0.03 µM, first compound 0.03 µM",59.5%
same,"viability, T/C","second compound 0.03 µM, first compound 0.0949 µM",25.3%
same,"viability, T/C","second compound 0.03 µM, first compound 0.3 µM",7.44%
same,"viability, T/C","second compound 0.0949 µM, first compound 0.000949 µM",76.8%
same,"viability, T/C","second compound 0.0949 µM, first compound 0.003 µM",65.3%
same,"viability, T/C","second compound 0.0949 µM, first compound 0.00949 µM",61.4%
same,"viability, T/C","second compound 0.0949 µM, first compound 0.03 µM",33.8%
same,"viability, T/C","second compound 0.0949 µM, first compound 0.0949 µM",14.2%
same,"viability, T/C","second compound 0.0949 µM, first compound 0.3 µM",5.26%
same,"viability, T/C","second compound 0.3 µM, first compound 0.000949 µM",33.5%
same,"viability, T/C","second compound 0.3 µM, first compound 0.003 µM",45.4%
same,"viability, T/C","second compound 0.3 µM, first compound 0.00949 µM",17.2%
same,"viability, T/C","second compound 0.3 µM, first compound 0.03 µM",13.4%
same,"viability, T/C","second compound 0.3 µM, first compound 0.0949 µM",5.23%
same,"viability, T/C","second compound 0.3 µM, first compound 0.3 µM",2.69%
